What was measured:
rats with PDD [1] = assay: Object recognition test in MPTP-HCl-induced PDD rats; assay type: in vivo, male Wistar rats
Procedure: 1-methyl-4-phenyl-1,2,3,6-tetrahydropyridine hydrochloride (MPTP-HCl) was used to induce PDD in the rats, and the therapeutic effect of ceftriaxone on PDD was evaluated via behavioral tests and histopathological assessment of the brain for the rats. The experiments of this example were conducted substantially according to the method as described in Ho Y. J. et al. (2011), Behav. Brain Res., 219:280-290.
The rats in the pathological control group, the preventive groups, and the treatment groups were anesthetized using Zoletil (Virbac, Carros, France; 20 mg/kg, intraperitoneal injection). Afterward, 0.5 M MPTP-HCl (in saline) was slowly infused bilaterally into the substantia nigra pars compacta (SNc) of the mesencephalon of each rat in the pathological control group, the preventive groups, and the treatment groups (0.21 mg/side) so as to induce the same to develop PDD.
5 days before the MPTP-HCl injection, ceftriaxone (Sigma) was administered to the rats in the preventive groups 1,2 via intraperitoneal injection respectively at a daily dose of 100 mg/kg and at a daily dose of 200 mg/kg until the end of the 14th day after the MPTP-HCl injection. After the MPTP-HCl injection, ceftriaxone was administered to the rats in the treatment group 1 and the sham-operated groups 2,3 via intraperitoneal injection respectively at a daily dose of 200 mg/kg, at a daily dose of 100 mg/kg, and at a daily dose of 200 mg/kg, and saline was administered to the rats in the pathological control group and the sham-operated group 1 via intraperitoneal injection at a daily dose of 1 mL/kg. In addition, starting on the 3rd day after the MPTP-HCl injection, ceftriaxone was administered to the rats in the treatment groups 2,3 via intraperitoneal injection respectively at a daily dose of 100 mg/kg and at a daily dose of 200 mg/kg. The rats in the pathological control group, the treatment groups 1,2,3, and the sham-operated groups 1,2,3 were subjected to the once-a-day administration until the end of the 14th day after the MPTP-HCl injection.
Starting on the 8th day after the MPTP-HCl injection, the rats in each group were subjected to the T-maze test as described in section C of this example. Starting on the 12th day after the MPTP-HCl injection, the rats in each group were subjected to the object recognition test as described in section D of this example. On the 15th day after the MPTP-HCl injection, the rats in the treatment group 1, the sham-operated group 1, and the pathological control group were subjected to the histopathological analysis as described in section E of this example.
In order to examine the effect of ceftriaxone on the recognition and/or memory ability of the rats with PDD, starting on the 12th day after the MPTP-HCl injection, all of the rats in each group were subjected to an object recognition test lasting a total of three days.
The object recognition test is described as follows. The object recognition test included four trials. The first and second trilas were conducted respectively on the 12th and 13th after the MPTP-HCl injection, and the third and fourth trials were conducted on the 14th day after the MPTP-HCl injection. Each of the four trials lasted 5 minutes. The time interval between the first and second trials, and that between the second and third trials were 1 day. The time interval between the third and fourth trials was 5 minutes. At the beginning of each of the four trials, the respective rat was placed in the open box and adjacent to the corner C4 thereof. During the first, second, and third trials, the objects A1, A2, A3 were disposed in the open box for being able to be explored by the respective rat (see FIG. 2(A)). During the fourth trial, the object A3 was replaced with the object B (see FIG. 2(B)). During the object recognition test, a video camera installed above the open box was used to monitor and record the behavior of the respective rat.

[2] = system: 6-hydroxydopamine (6-OHDA)-lesioned rats; settings: 6-OHDA-lesioned rats (animal model of PD); cited from earlier work
rats with PDD [3] = assay: Immunohistochemical staining (OX-6) of activated microglia in the SNc of PDD rats; assay type: in vivo, male Wistar rats; settings: Example 1 treatment group 1: 200 mg/kg daily i.p. for 14 days after MPTP-HCl; determined 15th day (FIG. 5)
Excerpt: (§1) In order to investigate whether ceftriaxone is effective in ameliorating neuroinflammation and neurodegeneration of the rats with PDD, on the 15th day after the MPTP-HCl injection, four rats were randomly selected from each of the treatment group 1, the sham-operated group 1, and the pathological control group for histopathological analysis.
(§2) The randomly selected rats were sacrificed using CO2, followed by perfusion with 4% paraformaldehyde (in phosphate buffered saline). The brains were rapidly removed and were post-fixed in a 30% sucrose solution containing 4% paraformaldehyde at 4° C. for at least three days. The brains were cut into coronal sections (a thickness of about 30 μm) using a cryostat (Leica CM3050 S, Leica).
The sections containing SNc were selected. […]
The experimental data are expressed as mean±SEM. The experimental data were subjected to one-way ANOVA and were subsequently subjected to LSD test such that the difference between the pathological control group and the sham-operated group 1, and the difference between the treatment group 1 and the pathological control group could be evaluated. […]

[4] = system: rats chronically exposed to hypobaric hypoxia; settings: cited from earlier work
rats with PDD [5] = assay: Nissl staining of pyramidal neurons in the hippocampal CA1 area of PDD rats; assay type: in vivo, male Wistar rats; settings: Example 1 treatment group 1: 200 mg/kg daily i.p. for 14 days after MPTP-HCl; determined 15th day (FIG. 6)
Excerpt: as §1, §2
In addition, the sections containing the hippocampal CA1 area were selected and were subjected to Nissl staining according to the method well known to and commonly used by one skilled in the art. […] Image Pro Plus Software 6.0 was utilized to estimate the percentage of an area occupied by pyramidal neurons in an area of 2,354 μm^2 according to the semi-quantitative method as described in Xavier L. L. et al. (2005), Brain Research protocols, 16:58-64.
The experimental data are expressed as mean±SEM. […]

aged-impaired (AI) rats = settings: daily dose of 200 mg/kg for 7 days; cited from earlier work

CO/N=C(\C(=O)N[C@@H]1C(=O)N2C(C(=O)O)=C(CSc3nc(=O)c(=O)[nH]n3C)CS[C@H]12)c1csc(N)n1 [ceftriaxone, Ceftriaxone]
percentage of exploration time spent on object B in the fourth trial versus object A3 in the third trial (rats with PDD [1]; Example 1 preventive group 1: 100 mg/kg daily i.p. from 5 days before MPTP-HCl, determined 14th day (FIG. 4)): there is statistical significance
percentage of exploration time spent on object B in the fourth trial versus object A3 in the third trial (rats with PDD [1]; Example 1 preventive group 2: 200 mg/kg daily i.p. from 5 days before MPTP-HCl, determined 14th day (FIG. 4)): there is statistical significance
percentage of exploration time spent on object B in the fourth trial versus object A3 in the third trial (rats with PDD [1]; Example 1 treatment group 1: 200 mg/kg daily i.p. after MPTP-HCl injection to 14th day, determined 14th day (FIG. 4)): there is statistical significance
percentage of exploration time spent on object B in the fourth trial versus object A3 in the third trial (rats with PDD [1]; Example 1 treatment group 2: 100 mg/kg daily i.p. starting 3rd day after MPTP-HCl, determined 14th day (FIG. 4)): there is statistical significance
percentage of exploration time spent on object B in the fourth trial versus object A3 in the third trial (rats with PDD [1]; Example 1 treatment group 3: 200 mg/kg daily i.p. starting 3rd day after MPTP-HCl, determined 14th day (FIG. 4)): there is statistical significance
percentage of exploration time spent on object B in the fourth trial versus object A3 in the third trial (rats with PDD [1]; Example 2 treatment group 1: 10 mg/kg daily i.p. after MPTP-HCl injection, determined 14th day (FIG. 8)): there is statistical significance
percentage of exploration time spent on object B in the fourth trial versus object A3 in the third trial (rats with PDD [1]; Example 2 treatment group 2: 50 mg/kg daily i.p. after MPTP-HCl injection, determined 14th day (FIG. 8)): there is statistical significance
motor symptoms [2]: useful in amelioration of motor symptoms
neuroprotection of dopaminergic neurons [2]: neuroprotection of dopaminergic neurons
density of activated microglia in the SNc compared to the pathological control group (rats with PDD [3]): significantly lower
cognitive impairment resulting from hypobaric hypoxia [4]: capable of ameliorating the cognitive impairment resulting from hypobaric hypoxia
neuronal degeneration and chromatin condensation [4]: decreasing neuronal degeneration and chromatin condensation
oxidative stress in the hippocampus [4]: reducing oxidative stress in the hippocampus
percentage of an area occupied by pyramidal neurons in the hippocampal CA1 area compared to the pathological control group (rats with PDD [5]): significantly higher
cognitive impairment (aged-impaired (AI) rats): able to ameliorate cognitive impairment of the AI rats
